# According to US10221182B2, “3,3-difluoro-piperidine derivatives as NR2B NMDA receptor antagonists” (Rugen Holdings (Cayman) Limited, priority 2015, dated 2019):
# Like-named read-outs stand apart in the source and are kept apart here.
# Assays:
# human NR1/NR2B = human NR1/NR2B (Homo sapiens (Human), UniProt Q05586+Q13224); assay: NR2B antagonist activity, Fluo-4 calcium influx assay in HEK293 cells; format: cell-based; conditions: glutamate 100 μM, glycine 50 μM
# Description: (§1) Activation of the NR2A or NR2B subtype of NMDA receptor with glutamate as an agonist and glycine co-agonist on these cells results in calcium influx, which can be monitored with fluorescent indicator Fluo-4.
# (§2) For experiments, the cells were seeded onto poly-D-lysine-coated 96-well black plates with clear bottom (Corning) at a density of ˜50,000 cells/well. After overnight culture, the growth medium was removed from the wells and the cells were incubated at 37° C. for 60 min in Hanks buffer containing 4 μM fluo-4-AM (Invitrogen) and 0.1% bovine serum albumin (BSA). After dye-loading, the cells were washed three times with Hanks buffer and incubated for 10 min at room temperature with various concentrations of test compounds prepared in Hanks buffer with 0.1% BSA. The cell plates were placed onto FDSS μCell fluorescence reader (Hamamatsu). After 20 sec reading of background fluorescence, agonist glutamate at final 100 μM and co-agonist glycine at final 50 μM were added to the cells to activate the receptor, and the resulting fluorescence changes were recorded and quantified. Based on the changes in fluorescence intensity, the pharmacological effect of test compounds were analyzed and the IC50 values derived from a non-linear least squares fitting of the concentration-dependent response to a standard logistic equation using Prism (Graphpad, Inc): Amplitude=Max Amplitude/(1+([…])^n).
# human NR1/NR2A [1] = biological target: human NR1/NR2A (Homo sapiens (Human), UniProt Q05586+Q12879); assay: NR2A antagonist activity, Fluo-4 calcium influx assay in HEK293 cells; format: cell-based
# Description: as §1, §2
# hERG channel = hERG channel (Homo sapiens (Human), UniProt Q12809); assay: hERG channel inhibition, whole cell patch clamp in HEK293 cells; conditions: for hERG @ 10 μM: inhibition at 10 μM
# CYP2D6 = CYP2D6 (Homo sapiens (Human), UniProt P10635); assay: CYP P450 enzyme inhibition in pooled human liver microsome; conditions: dextromethorphan 5 μM; for CYP2D6 @ 10 μM: inhibition at 10 μM, pooled HLM; for IC50: CYP2D6 IC50, pooled HLM
# Description: Those CYP isoforms and their corresponding probe substrates are as follows: CYP1A2 (phenacetin, 30 μM), CYP2C9 (tolutamide, 100 μM), CYP2C19 (S-mephenytoin, 40 μM), CYP2D6 (dextromethorphan, 5 μM) and CYP3A4 (midazolam, 1 μM). All probe substrates were used at concentrations near or below their Kms. For experiment, a reaction mixture of test compound at 10 uM or in serial dilution, CYP probe substrate described above and 0.2 mg/mL pooled HLM in phosphate buffer, pH 7.4 in a final volume of 200 μL was pre-incubated at 37° C. for 10 minutes in triplicate. The reaction was initiated by addition of NADPH at final concentration of 1 mM. The reaction was terminated after 10 minutes (CYP1A2, CYP2D6 and CYP3A4) or 30 minutes (CYP2C9 and CYP2C19) by addition of 100 μL ice-cold acetonitrile with internal standard (IS). The samples were then centrifuged at 13,000 rpm and the supernatants were injected to LC-MS/MS (Agilent Technologies) to quantify the concentration of the specific metabolites of the probe substrates formed by individual CYP450 isoforms. The inhibition ratio is calculated as: (Mt−M0)/Mwater×100% in which Mt and M0 represent the concentrations of the specific probe substrate metabolite, which was formed by individual CYP450 isoform, at the beginning and end of the reaction in the presence of test compound; while Mwater represents the concentration of the specific metabolite at the end of the reaction in the absence of test compound. Test compound concentration-dependent response data experiments performed in triplicate.
# human NR1/NR2A [2] = biological target: human NR1/NR2A (Homo sapiens (Human), UniProt Q12879); assay: NR2A antagonist activity, Fluo-4 calcium influx assay in HEK293 cells; format: cell-based
# Description: as §1, §2
# [3] = hNR2B IC50, HEK293 cells expressing NR1/NR2B
# [4] = HEK293 cells expressing NR1/NR2B, read-out: hNR2B IC50
# [5] = HEK293 cells expressing NR1/NR2A, glutamate 100 μM, glycine 50 μM, read-out: hNR2A IC50
# [6] = read-out: hNR2A IC50; HEK293 cells expressing NR1/NR2A; glutamate 100 μM, glycine 50 μM
# Chain of hERG channel (Q12809 whole entry): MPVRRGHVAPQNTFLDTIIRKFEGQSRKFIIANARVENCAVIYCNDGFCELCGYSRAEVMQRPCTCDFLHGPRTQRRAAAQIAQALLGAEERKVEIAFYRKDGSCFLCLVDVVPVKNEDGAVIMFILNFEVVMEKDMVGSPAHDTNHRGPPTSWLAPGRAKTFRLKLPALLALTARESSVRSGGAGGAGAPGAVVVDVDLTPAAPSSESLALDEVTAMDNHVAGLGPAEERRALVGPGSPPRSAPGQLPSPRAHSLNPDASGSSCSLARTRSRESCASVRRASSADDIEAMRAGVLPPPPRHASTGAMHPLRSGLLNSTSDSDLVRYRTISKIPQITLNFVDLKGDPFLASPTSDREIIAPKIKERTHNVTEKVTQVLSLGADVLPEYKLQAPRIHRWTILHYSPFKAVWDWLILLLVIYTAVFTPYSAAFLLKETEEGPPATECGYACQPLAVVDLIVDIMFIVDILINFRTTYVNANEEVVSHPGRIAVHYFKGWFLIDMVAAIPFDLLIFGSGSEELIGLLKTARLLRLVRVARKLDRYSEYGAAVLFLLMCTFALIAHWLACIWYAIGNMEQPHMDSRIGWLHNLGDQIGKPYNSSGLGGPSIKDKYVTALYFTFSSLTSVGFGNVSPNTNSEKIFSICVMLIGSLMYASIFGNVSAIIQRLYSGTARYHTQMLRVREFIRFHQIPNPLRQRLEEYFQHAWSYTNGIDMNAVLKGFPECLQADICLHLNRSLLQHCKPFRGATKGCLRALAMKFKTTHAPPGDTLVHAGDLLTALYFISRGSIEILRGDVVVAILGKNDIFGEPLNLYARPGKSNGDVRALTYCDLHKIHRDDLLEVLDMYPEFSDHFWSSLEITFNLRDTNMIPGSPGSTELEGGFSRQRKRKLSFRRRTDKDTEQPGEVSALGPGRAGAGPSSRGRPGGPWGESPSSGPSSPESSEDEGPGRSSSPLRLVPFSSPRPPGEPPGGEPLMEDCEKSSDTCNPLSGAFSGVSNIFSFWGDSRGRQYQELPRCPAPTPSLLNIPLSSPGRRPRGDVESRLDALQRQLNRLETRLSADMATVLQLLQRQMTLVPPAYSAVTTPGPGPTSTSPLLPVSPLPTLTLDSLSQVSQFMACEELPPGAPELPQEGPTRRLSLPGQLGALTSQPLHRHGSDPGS
# Chain of human NR1/NR2B (Q13224 27-1484, other chains not shown): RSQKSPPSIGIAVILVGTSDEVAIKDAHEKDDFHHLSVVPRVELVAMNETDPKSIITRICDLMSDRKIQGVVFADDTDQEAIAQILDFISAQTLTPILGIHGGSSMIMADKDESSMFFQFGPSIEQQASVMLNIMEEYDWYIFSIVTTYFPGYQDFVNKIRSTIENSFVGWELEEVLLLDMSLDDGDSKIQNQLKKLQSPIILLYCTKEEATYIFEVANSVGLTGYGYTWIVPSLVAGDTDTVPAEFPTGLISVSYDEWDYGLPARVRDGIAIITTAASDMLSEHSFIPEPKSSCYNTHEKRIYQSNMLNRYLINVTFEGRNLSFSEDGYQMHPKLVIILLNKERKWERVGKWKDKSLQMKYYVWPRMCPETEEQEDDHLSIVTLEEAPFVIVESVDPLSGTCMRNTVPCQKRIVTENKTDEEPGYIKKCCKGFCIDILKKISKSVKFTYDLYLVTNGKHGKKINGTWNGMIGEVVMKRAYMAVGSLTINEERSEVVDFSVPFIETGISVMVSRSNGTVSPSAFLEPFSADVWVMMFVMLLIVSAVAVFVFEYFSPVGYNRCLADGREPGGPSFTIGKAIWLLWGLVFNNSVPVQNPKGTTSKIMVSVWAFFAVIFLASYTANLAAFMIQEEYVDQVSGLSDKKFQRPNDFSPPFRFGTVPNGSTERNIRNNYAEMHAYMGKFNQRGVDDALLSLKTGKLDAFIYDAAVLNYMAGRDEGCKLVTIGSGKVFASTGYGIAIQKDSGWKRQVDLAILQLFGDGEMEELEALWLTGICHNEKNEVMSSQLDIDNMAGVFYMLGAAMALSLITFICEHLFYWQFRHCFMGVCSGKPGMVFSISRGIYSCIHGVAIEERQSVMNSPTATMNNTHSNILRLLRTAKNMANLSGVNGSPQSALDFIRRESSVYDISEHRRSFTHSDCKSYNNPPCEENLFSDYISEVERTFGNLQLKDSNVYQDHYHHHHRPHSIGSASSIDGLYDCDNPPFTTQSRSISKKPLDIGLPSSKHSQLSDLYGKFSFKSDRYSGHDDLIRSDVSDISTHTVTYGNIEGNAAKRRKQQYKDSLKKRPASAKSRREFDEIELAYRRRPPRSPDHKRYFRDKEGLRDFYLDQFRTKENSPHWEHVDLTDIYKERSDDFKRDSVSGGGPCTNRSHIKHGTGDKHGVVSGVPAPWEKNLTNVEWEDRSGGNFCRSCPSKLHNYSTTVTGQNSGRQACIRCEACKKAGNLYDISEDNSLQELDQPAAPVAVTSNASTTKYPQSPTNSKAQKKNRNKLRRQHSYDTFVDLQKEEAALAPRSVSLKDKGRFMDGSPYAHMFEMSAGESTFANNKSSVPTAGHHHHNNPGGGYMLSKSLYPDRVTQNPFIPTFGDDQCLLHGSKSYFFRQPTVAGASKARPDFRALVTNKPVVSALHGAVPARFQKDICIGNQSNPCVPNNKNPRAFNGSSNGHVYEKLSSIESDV
# Chain of human NR1/NR2A (Homo sapiens (Human), UniProt Q05586+Q12879) (Q12879 23-1464, other chains not shown): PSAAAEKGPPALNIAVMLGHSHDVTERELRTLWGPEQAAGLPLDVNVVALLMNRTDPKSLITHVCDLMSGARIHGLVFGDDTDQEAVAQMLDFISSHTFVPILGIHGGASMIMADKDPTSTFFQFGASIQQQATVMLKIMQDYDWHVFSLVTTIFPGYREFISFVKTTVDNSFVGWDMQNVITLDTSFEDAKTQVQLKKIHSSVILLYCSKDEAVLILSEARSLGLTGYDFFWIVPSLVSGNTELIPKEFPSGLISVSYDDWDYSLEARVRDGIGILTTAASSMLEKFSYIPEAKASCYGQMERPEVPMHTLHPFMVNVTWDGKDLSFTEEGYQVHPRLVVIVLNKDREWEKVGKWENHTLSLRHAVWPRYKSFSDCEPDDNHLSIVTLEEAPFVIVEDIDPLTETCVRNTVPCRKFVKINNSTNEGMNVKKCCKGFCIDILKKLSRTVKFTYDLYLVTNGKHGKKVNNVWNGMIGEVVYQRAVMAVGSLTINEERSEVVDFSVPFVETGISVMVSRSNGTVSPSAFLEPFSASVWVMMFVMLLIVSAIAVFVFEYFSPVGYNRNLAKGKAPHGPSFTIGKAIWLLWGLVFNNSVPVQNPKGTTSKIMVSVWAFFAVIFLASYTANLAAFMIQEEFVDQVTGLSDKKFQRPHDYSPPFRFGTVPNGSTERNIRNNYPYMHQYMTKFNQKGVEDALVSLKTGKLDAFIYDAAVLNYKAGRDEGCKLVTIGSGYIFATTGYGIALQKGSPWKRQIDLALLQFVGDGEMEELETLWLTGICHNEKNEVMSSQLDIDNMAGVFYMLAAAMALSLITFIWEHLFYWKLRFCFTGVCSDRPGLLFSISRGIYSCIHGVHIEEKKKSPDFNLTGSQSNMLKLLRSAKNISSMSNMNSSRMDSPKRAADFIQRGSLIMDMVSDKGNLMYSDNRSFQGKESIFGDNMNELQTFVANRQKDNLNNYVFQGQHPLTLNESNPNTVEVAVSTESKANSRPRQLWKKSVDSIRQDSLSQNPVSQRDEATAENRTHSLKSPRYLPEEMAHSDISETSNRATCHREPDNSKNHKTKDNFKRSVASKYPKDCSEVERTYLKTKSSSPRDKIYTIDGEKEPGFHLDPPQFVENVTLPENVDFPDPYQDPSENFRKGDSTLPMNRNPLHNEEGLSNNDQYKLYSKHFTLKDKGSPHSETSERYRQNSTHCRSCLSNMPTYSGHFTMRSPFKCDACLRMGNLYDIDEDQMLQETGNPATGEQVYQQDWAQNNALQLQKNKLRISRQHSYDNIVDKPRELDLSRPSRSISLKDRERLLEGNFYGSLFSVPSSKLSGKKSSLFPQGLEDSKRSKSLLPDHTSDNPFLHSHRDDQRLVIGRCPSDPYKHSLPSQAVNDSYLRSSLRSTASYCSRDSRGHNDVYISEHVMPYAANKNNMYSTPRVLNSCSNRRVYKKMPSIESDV
# Chain of CYP2D6 (P10635 whole entry): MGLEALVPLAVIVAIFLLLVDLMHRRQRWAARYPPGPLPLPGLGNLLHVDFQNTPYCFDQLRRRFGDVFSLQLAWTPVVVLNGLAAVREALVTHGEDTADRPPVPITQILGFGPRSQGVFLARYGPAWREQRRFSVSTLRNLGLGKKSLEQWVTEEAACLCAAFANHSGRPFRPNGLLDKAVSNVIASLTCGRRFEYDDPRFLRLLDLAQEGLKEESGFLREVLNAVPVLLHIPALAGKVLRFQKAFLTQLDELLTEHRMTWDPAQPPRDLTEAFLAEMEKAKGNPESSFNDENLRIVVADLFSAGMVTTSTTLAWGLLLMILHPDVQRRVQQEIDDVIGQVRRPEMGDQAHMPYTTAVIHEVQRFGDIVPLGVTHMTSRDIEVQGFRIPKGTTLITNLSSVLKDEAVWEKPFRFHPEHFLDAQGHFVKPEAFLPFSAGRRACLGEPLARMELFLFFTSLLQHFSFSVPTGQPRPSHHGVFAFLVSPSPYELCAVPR
Compound,IC50 (human NR1/NR2B; [3]),IC50 (human NR1/NR2A [1]),CYP2D6 @ 10 μM (CYP2D6),hERG @ 10 μM (hERG channel),also measured
"FC1(F)CN(CCc2ccccc2)CCC1Nc1ncnc2[nH]ncc12 (racemic) [C-1.1, (±)-N-(3,3-difluoro-1-phenethylpiperidin-4-yl)-1H-pyrazolo[3,4-d]pyrimidin-4-amine]",0.0988 µM,> 10 µM,–,–,IC50 (hERG channel): 71 µM
"Fc1ccc(CCN2CCC(Nc3ncnc4[nH]ncc34)C(F)(F)C2)cc1 (racemic) [C-1.2, (±)-N-(3,3-difluoro-1-(4-fluorophenethyl)piperidin-4-yl)-1H-pyrazolo[3,4-d]-pyrimidin-4-amine]",0.0683 µM,> 10 µM,45.1%,–,IC50 (hERG channel): 16.3 µM
"Cc1n[nH]c2ncnc(NC3CCN(CCc4ccc(C(F)(F)F)cc4)CC3(F)F)c12 (racemic) [C-1.34, (±)-N-(3,3-difluoro-1-(4-(trifluoromethyl)phenethyl)piperidin-4-yl)-3-methyl-1H-pyrazolo[3,4-d]pyrimidin-4-amine]",–,> 10 µM,–,68%,–
"Fc1ccc(F)c(CCN2CCC(Nc3ncnc4[nH]ncc34)C(F)(F)C2)c1 (racemic) [C-1.35, (±)-N-(1-(2,5-difluorophenethyl)-3,3-difluoropiperidin-4-yl)-1H-pyrazolo[3,4-d]-pyrimidin-4-amine]",0.329 µM,> 10 µM,–,17%,–
FC(F)(F)c1cccc(CCN2CCC(Nc3ncnc4[nH]ncc34)C(F)(F)C2)c1 (racemic) [C-1.36],–,> 10 µM,27.9%,56%,–
"FC(F)(F)c1ccc(CCN2CCC(Nc3ncnc4[nH]ccc34)C(F)(F)C2)cc1 (racemic) [C-2.5, (±)-N-(3,3-difluoro-1-(4-(trifluoromethyl)phenethyl)piperidin-4-yl)-7H-pyrrolo-[2,3-d]pyrimidin-4-amine]",–,–,–,60%,IC50 (human NR1/NR2B; [4]): 0.105 µM; IC50 (human NR1/NR2A [1]; [5]): > 10 µM
"Cc1ccc(CCN2CCC(Nc3ncnc4[nH]ncc34)C(F)(F)C2)cn1 (racemic) [C-3.4, (±)-N-(3,3-difluoro-1-(2-(6-methylpyridin-3-yl)ethyl)piperidin-4-yl)-1H-pyrazolo[3,4-d]pyrimidin-4-amine]",2.27 µM,> 10 µM,–,18%,–
"FC(F)(F)c1ccc(CCN2CCC(Nc3ncnc4[nH]ncc34)C(F)(F)C2)cn1 (racemic) [C-3.5, (±)-N-(3,3-difluoro-1-(2-(6-(trifluoromethyl)pyridin-3-yl)ethyl)piperidin-4-yl)-1H-pyrazolo[3,4-d]pyrimidin-4-amine]",–,–,–,23%,IC50 (human NR1/NR2B; [4]): 0.822 µM; IC50 (human NR1/NR2A [1]; [5]): > 10 µM
"FC(F)(F)c1ccc(CCN2CCC(Nc3ncnc4[nH]ccc34)C(F)(F)C2)cn1 (racemic) [C-4.5, (±)-N-(3,3-difluoro-1-(2-(6-(trifluoromethyl)pyridin-3-yl)ethyl)piperidin-4-yl)-7H-pyrrolo[2,3-d]pyrimidin-4-amine]",–,–,–,24%,IC50 (human NR1/NR2B; [4]): 1.74 µM; IC50 (human NR1/NR2A [1]; [5]): > 10 µM
"FC1(F)CN(CCc2ccc(Cl)cc2)CCC1Nc1ncnc2[nH]ncc12 (single isomer, unassigned) [E1-1.3, (R*)-N-(1-(4-chlorophenethyl)-3,3-difluoropiperidin-4-yl)-1H-pyrazolo[3,4-d]-pyrimidin-4-amine]",0.025 µM,> 10 µM,21.5%,58%,–
"Cc1ccc(CCN2CCC(Nc3ncnc4[nH]ncc34)C(F)(F)C2)cc1 (single isomer, unassigned) [E1-1.4, (R*)-N-(3,3-difluoro-1-(4-methylphenethyl)piperidin-4-yl)-1H-pyrazolo[3,4-d]-pyrimidin-4-amine]",0.0185 µM,> 10 µM,–,–,–
"FC(F)c1ccc(CCN2CCC(Nc3ncnc4[nH]ncc34)C(F)(F)C2)cc1 (single isomer, unassigned) [E1-1.6, (R*)-N-(1-(4-(difluoromethyl)phenethyl)-3,3-difluoropiperidin-4-yl)-1H-pyrazolo-[3,4-d]pyrimidin-4-amine]",–,> 10 µM,24.4%,63%,IC50 (hERG channel; hERG IC50): 3.5 µM
"FCc1ccc(CCN2CCC(Nc3ncnc4[nH]ncc34)C(F)(F)C2)cc1 (single isomer, unassigned) [E1-1.7, (R*)-N-(3,3-difluoro-1-(4-(fluoromethyl)phenethyl)piperidin-4-yl)-1H-pyrazolo[3,4-d]-pyrimidin-4-amine]",0.0224 µM,> 10 µM,23.2%,36%,–
"FC(F)(F)Oc1ccc(CCN2CCC(Nc3ncnc4[nH]ncc34)C(F)(F)C2)cc1 (single isomer, unassigned) [E1-1.11, (R*)-N-(3,3-difluoro-1-(4-(trifluoromethoxy)phenethyl)piperidin-4-yl)-1H-pyrazolo[3,4-d]pyrimidin-4-amine]",–,> 10 µM,–,–,–
"FC(F)Oc1ccc(CCN2CCC(Nc3ncnc4[nH]ncc34)C(F)(F)C2)cc1 (single isomer, unassigned) [E1-1.12, (R*)-N-(1-(4-(difluoromethoxy)phenethyl)-3,3-difluoropiperidin-4-yl)-1H-pyrazolo[3,4-d]pyrimidin-4-amine]",0.0838 µM,> 10 µM,–,79%,–
"Fc1cc(Cl)ccc1CCN1CCC(Nc2ncnc3[nH]ncc23)C(F)(F)C1 (single isomer, unassigned) [E1-1.16, (R*)-N-(1-(4-chloro-2-fluorophenethyl)-3,3-difluoropiperidin-4-yl)-1H-pyrazolo-[3,4-d]pyrimidin-4-amine]",0.0279 µM,> 10 µM,23.2%,47%,–
"FC1(F)CN(CCc2ccc(Cl)cc2)CCC1Nc1ncnc2[nH]ncc12 (single isomer, unassigned) [E2-1.3, (S*)-N-(1-(4-chlorophenethyl)-3,3-difluoropiperidin-4-yl)-1H-pyrazolo[3,4-d]pyrimidin-4-amine]",0.0317 µM,–,27.6%,64%,IC50 (human NR1/NR2A [2]; [6]): > 10 µM
"Cc1ccc(CCN2CCC(Nc3ncnc4[nH]ncc34)C(F)(F)C2)cc1 (single isomer, unassigned) [E2-1.4, (S*)-N-(3,3-difluoro-1-(4-methylphenethyl)piperidin-4-yl)-1H-pyrazolo[3,4-d]-pyrimidin-4-amine]",0.0219 µM,–,–,–,IC50 (human NR1/NR2A [2]; [6]): > 10 µM
"FC(F)c1ccc(CCN2CCC(Nc3ncnc4[nH]ncc34)C(F)(F)C2)cc1 (single isomer, unassigned) [E2-1.6, (S*)-N-(1-(4-(difluoromethyl)phenethyl)-3,3-difluoropiperidin-4-yl)-1H-pyrazolo-[3,4-d]-pyrimidin-4-amine]",–,–,37.1%,70%,IC50 (human NR1/NR2A [2]; [6]): > 10 µM
"FCc1ccc(CCN2CCC(Nc3ncnc4[nH]ncc34)C(F)(F)C2)cc1 (single isomer, unassigned) [E2-1.7, (S*)-N-(3,3-difluoro-1-(4-(fluoromethyl)phenethyl)piperidin-4-yl)-1H-pyrazolo-[3,4-d]-pyrimidin-4-amine]",0.0381 µM,–,–,49%,IC50 (human NR1/NR2A [2]; [6]): > 10 µM
"Fc1cc(Cl)ccc1CCN1CCC(Nc2ncnc3[nH]ncc23)C(F)(F)C1 (single isomer, unassigned) [E2-1.16, (S*)-N-(1-(4-chloro-2-fluorophenethyl)-3,3-difluoropiperidin-4-yl)-1H-pyrazolo-[3,4-d]pyrimidin-4-amine]",0.0619 µM,–,–,64%,IC50 (human NR1/NR2A [2]; [6]): > 10 µM
"FC(F)(F)c1ccc(CCN2CCC(Nc3ncnc4[nH]ncc34)C(F)(F)C2)cc1 (single isomer, unassigned; (+)) [E1-1.5, (+)-(R*)-N-(3,3-difluoro-1-(4-(trifluoromethyl)phenethyl)piperidin-4-yl)-1H-pyrazolo[3,4-d]pyrimidin-4-amine]",–,> 10 µM,27.6%,–,IC50 (CYP2D6): 34.1 µM; IC50 (hERG channel; hERG IC50): 9.8 µM
"FC(F)(F)c1ccc(CCN2CCC(Nc3ncnc4[nH]ncc34)C(F)(F)C2)cc1 (single isomer, unassigned; (-)) [E2-1.5, (−)-(S*)-N-(3,3-difluoro-1-(4-(trifluoromethyl)phenethyl)piperidin-4-yl)-1H-pyrazolo[3,4-d]pyrimidin-4-amine]",–,–,37.9%,–,IC50 (human NR1/NR2A [2]; [6]): > 10 µM; IC50 (CYP2D6): 15.2 µM; IC50 (hERG channel; hERG IC50): 7.6 µM
"FC(F)(F)c1ccc(C(F)(F)CN2CCC(Nc3ncnc4[nH]ncc34)CC2)cc1 [LX-1, reference compound]",–,–,93%,–,–
"(±)-N-(1-(3,4-difluorophenethyl)-3,3-difluoropiperidin-4-yl)-1H-pyrazolo-[3,4-d]-pyrimidin-4-amine [C-1.15]",–,–,–,37%,"IC50 (human NR1/NR2B; [4]): 0.0789 µM; IC50 (human NR1/NR2A [2]; HEK293 cells expressing NR1/NR2A; glutamate 100 μM, glycine 50 μM; read-out: hNR2A IC50): > 10 µM"
